How the values were obtained:
Assay type in all cases: cell-based
[1] = system: human dermal fibroblasts from Huntington's patients; assay: Rescue of BSO-stressed fibroblasts from Huntington's patients (screen as Example A); conditions: Fibroblast, BSO-stressed Huntington's fibroblasts (GM 04281), less than about 150 nM, read-out: EC50, protection against Huntington's
Procedure, shortened: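 Coriell Huntington's line GM 04281 plated at 3,000 cells/well and attached overnight at 37 °C. Survival was read by Calcein AM (1.2 μM, 50-70 min, RT) fluorescence at 485/525 nm, giving EC50.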

[2] = system: human dermal fibroblasts from LHON patients; assay: Rescue of BSO-stressed fibroblasts from LHON patients (screen as Example A); conditions: Fibroblast, BSO-stressed LHON fibroblasts (GM03858), less than about 150 nM, read-out: EC50, protection against LHON
Procedure, shortened: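 LHON patient fibroblasts (Coriell GM03858) at 3,000 cells/well were pre-treated overnight with compounds serially diluted from a 150 μM master solution. Surviving cells were stained with 1.2 μM Calcein AM for 50-70 min at RT and read by fluorescence (485/525 nm), giving EC50.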

[3] = system: human dermal fibroblasts from CoQ10 deficient patients; assay: Rescue of BSO-stressed fibroblasts from CoQ10 deficient patients (screen similar to Example A); conditions: Fibroblast, BSO-stressed fibroblasts from CoQ10 deficient patients harboring a CoQ2 mutation, less than about 150 nM, read-out: EC50, protection against CoQ10 deficiency
Experimental: (§1) A culture with FRDA fibroblasts was started from a 1 ml vial with approximately 500,000 cells stored in liquid nitrogen. Cells were propagated in 10 cm cell culture dishes by splitting every third day in a ratio of 1:3 until nine plates were available. Once confluent, fibroblasts were harvested. For 54 micro titer plates (96 well-MTP) a total of 14.3 million cells (passage eight) were re-suspended in 480 ml medium, corresponding to 100 μl medium with 3,000 cells/well. The remaining cells were distributed in 10 cm cell culture plates (500,000 cells/plate) for propagation. The plates were incubated overnight at 37° C. in an atmosphere with 95% humidity and 5% CO2 to allow attachment of the cells to the culture plate.
(§2) MTP medium (243 μl) was added to a well of the microtiter plate. The test compounds were unfrozen, and 7.5 μl of a 5 mM stock solution was dissolved in the well containing 243 μl medium, resulting in a 150 μM master solution. Serial dilutions from the master solution were made. The period between the single dilution steps was kept as short as possible (generally less than 1 second).
(§3) Plates were kept overnight in the cell culture incubator. The next day, 10 μl of a 10 mM BSO solution were added to the wells, resulting in a 1 mM final BSO concentration. Forty-eight hours later, three plates were examined under a phase-contrast microscope to verify that the cells in the 0% control (wells E1-H1) were clearly dead. The medium from all plates was discarded, and the remaining liquid was removed by gently tapping the plate inversed onto a paper towel.
(§4) 100 μl of PBS containing 1.2 μM Calcein AM were then added to each well. The plates were incubated for 50-70 minutes at room temperature. After that time the PBS was discarded, the plate gently tapped on a paper towel and fluorescence (excitation/emission wavelengths of 485 nm and 525 nm, respectively) was read on a Gemini fluorescence reader. Data was imported into Microsoft Excel (EXCEL is a registered trademark of Microsoft Corporation for a spreadsheet program) and used to calculate the EC50 concentration for each compound.
Compounds of the invention were tested using a screen similar to the one described in Example A, but substituting FRDA cells with cells obtained from CoQ10 deficient patients harboring a CoQ2 mutation. The compounds were tested for their ability to rescue human dermal fibroblasts from CoQ10 deficient patients from oxidative stress.

[4] = system: Human dermal fibroblasts from Friedreich's Ataxia patients; assay: Rescue of BSO-stressed FRDA fibroblasts (Calcein AM viability); conditions: BSO-stressed FRDA fibroblasts (GM04078), less than about 150 nM, read-out: EC50, protection against FRDA
Procedure, shortened: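 Patient FRDA fibroblasts (GM04078) seeded at 3,000 cells/well, given serially diluted compound from a 150 μM master solution, then stressed next day with 1 mM BSO.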

[5] = system: human dermal fibroblasts from Parkinson's Disease patients; assay: Rescue of BSO-stressed fibroblasts from Parkinson's Disease patients (screen as Example A); conditions: Fibroblast, BSO-stressed Parkinson's Disease fibroblasts (AG20439), less than about 150 nM, read-out: EC50, protection against PD
Experimental: as §1, §2, §3, §4
Compounds of the invention were screened as described in Example A, but substituting FRDA cells with Parkinson's Disease (PD) cells obtained from the Coriell Cell Repositories (Camden, N.J.; repository number AG20439). The compounds were tested for their ability to rescue human dermal fibroblasts from Parkinson's Disease patients from oxidative stress.

Measured: EC50

CC1=C(C)C(=O)C(CCCC(=O)NCCc2ccccc2)=C(C)C1=O [N-phenethyl-4-(2,4,5-trimethyl-3,6-dioxocyclohexa-1,4-dienyl)butanamide]
< 150 nM: [1] | [2] | [3]

CC1=C(C)C(=O)C(CCNC(=O)C(C)c2ccc(Cl)cc2)=C(C)C1=O (stereo not shown) [2-(4-chlorophenyl)-N-(2-(2,4,5-trimethyl-3,6-dioxocyclohexa-1,4-dienyl)ethyl)propanamide]
< 150 nM: [4] | [1] | [3]

CC1=C(C)C(=O)C(CCCC(=O)Nc2cccc(F)c2)=C(C)C1=O [N-(3-fluorophenyl)-4-(2,4,5-trimethyl-3,6-dioxocyclohexa-1,4-dienyl)butanamide]
< 150 nM: [4] | [1] | [2] | [3]

COc1ccc(CC(=O)NCCC2=C(C)C(=O)C(C)=C(C)C2=O)cc1 [2-(4-methoxyphenyl)-N-(2-(2,4,5-trimethyl-3,6-dioxocyclohexa-1,4-dienyl)ethyl)acetamide]
< 150 nM: [4] | [1] | [2] | [3]

CC1=C(C)C(=O)C(CCCC(=O)Nc2ccc3c(c2)OCCO3)=C(C)C1=O [N-(2,3-dihydrobenzo[b][1,4]dioxin-6-yl)-4-(2,4,5-trimethyl-3,6-dioxocyclohexa-1,4-dienyl)butanamide]
< 150 nM: [4] | [1] | [2] | [3]

COc1ccc(C2(C(=O)NCCC3=C(C)C(=O)C(C)=C(C)C3=O)CC2)cc1 [1-(4-methoxyphenyl)-N-(2-(2,4,5-trimethyl-3,6-dioxocyclohexa-1,4-dienyl)ethyl)cyclopropanecarboxamide]
< 150 nM: [4] | [3]

CC1=C(C)C(=O)C(CCNC(=O)C(O)c2ccc(C(F)(F)F)cc2)=C(C)C1=O (stereo not shown) [2-hydroxy-2-(4-(trifluoromethyl)phenyl)-N-(2-(2,4,5-trimethyl-3,6-dioxocyclohexa-1,4-dienyl)ethyl)acetamide]
< 150 nM: [4] | [1] | [2] | [3]

CC1=C(C)C(=O)C(CCNC(=O)N(C)Cc2ccc(Cl)cc2)=C(C)C1=O [1-(4-chlorobenzyl)-1-methyl-3-(2-(2,4,5-trimethyl-3,6-dioxocyclohexa-1,4-dienyl)ethyl)urea]
< 150 nM: [1] | [2] | [3]

CC1=C(C)C(=O)C(CCNC(=O)CCc2ccc(F)cc2)=C(C)C1=O [3-(4-fluorophenyl)-N-(2-(2,4,5-trimethyl-3,6-dioxocyclohexa-1,4-dienyl)ethyl)propanamide]
< 150 nM: [4] | [3]

CC1=C(C)C(=O)C(CCCC(=O)Nc2ccncc2)=C(C)C1=O [N-(pyridin-4-yl)-4-(2,4,5-trimethyl-3,6-dioxocyclohexa-1,4-dienyl)butanamide]
< 150 nM: [4] | [1] | [2] | [5]

CC1=C(C)C(=O)C(CCNC(=O)N2CCN(Cc3ccccc3)CC2)=C(C)C1=O [4-benzyl-N-(2-(2,4,5-trimethyl-3,6-dioxocyclohexa-1,4-dienyl)ethyl)piperazine-1-carboxamide]
< 150 nM: [4] | [1] | [2] | [5]

CC1=C(C)C(=O)C(CCC(C)C(=O)NCc2ccccc2)=C(C)C1=O (stereo not shown) [N-benzyl-2-methyl-4-(2,4,5-trimethyl-3,6-dioxocyclohexa-1,4-dienyl)butanamide]
< 150 nM: [4] | [1] | [2] | [5]

CC1=C(C)C(=O)C(CCNC(=O)c2ccc(C#N)cc2)=C(C)C1=O [4-cyano-N-(2-(2,4,5-trimethyl-3,6-dioxocyclohexa-1,4-dienyl)ethyl)benzamide]
< 150 nM: [4] | [2] | [3]

CC1=C(C)C(=O)C(CCNC(=O)NCc2ccc(Cl)cc2)=C(C)C1=O [1-(4-chlorobenzyl)-3-(2-(2,4,5-trimethyl-3,6-dioxocyclohexa-1,4-dienyl)ethyl)urea]
< 150 nM: [4] | [1] | [2] | [5]

CC1=C(C)C(=O)C(CCCC(=O)Nc2ccccn2)=C(C)C1=O [N-(pyridin-2-yl)-4-(2,4,5-trimethyl-3,6-dioxocyclohexa-1,4-dienyl)butanamide]
< 150 nM: [4] | [1] | [2] | [5]

CC1=C(C)C(=O)C(CCNC(=O)NCc2cccnc2)=C(C)C1=O [1-(pyridin-3-ylmethyl)-3-(2-(2,4,5-trimethyl-3,6-dioxocyclohexa-1,4-dienyl)ethyl)urea]
< 150 nM: [4] | [1] | [2] | [5]

CC1=C(C)C(=O)C(CCNC(=O)Cc2cccc3ccccc23)=C(C)C1=O [2-(naphthalen-1-yl)-N-(2-(2,4,5-trimethyl-3,6-dioxocyclohexa-1,4-dienyl)ethyl)acetamide]
< 150 nM: [4] | [3]

CC1=C(C)C(=O)C(CCNC(=O)C2(c3ccccc3)CC2)=C(C)C1=O [1-phenyl-N-(2-(2,4,5-trimethyl-3,6-dioxocyclohexa-1,4-dienyl)ethyl)cyclopropanecarboxamide]
< 150 nM: [4] | [2] | [3]

CC1=C(C)C(=O)C(CCCC(=O)Nc2cc(Cl)ccc2Cl)=C(C)C1=O [N-(2,5-dichlorophenyl)-4-(2,4,5-trimethyl-3,6-dioxocyclohexa-1,4-dienyl)butanamide]
< 150 nM: [4] | [1] | [2] | [5]

COc1ccccc1CC(=O)NCCC1=C(C)C(=O)C(C)=C(C)C1=O [2-(2-methoxyphenyl)-N-(2-(2,4,5-trimethyl-3,6-dioxocyclohexa-1,4-dienyl)ethyl)acetamide]
< 150 nM: [4] | [3]

CC1=C(C)C(=O)C(CCNC(=O)Cc2ccc(Cl)cc2)=C(C)C1=O [2-(4-chlorophenyl)-N-(2-(2,4,5-trimethyl-3,6-dioxocyclohexa-1,4-dienyl)ethyl)acetamide]
< 150 nM: [4] | [1] | [2] | [5]

CC1=C(C)C(=O)C(CCNS(=O)(=O)c2ccc(F)cc2)=C(C)C1=O [4-fluoro-N-(2-(2,4,5-trimethyl-3,6-dioxocyclohexa-1,4-dienyl)ethyl)benzenesulfonamide]
< 150 nM: [4] | [1] | [2] | [5]

CC1=C(C)C(=O)C(CCCC(=O)Nc2c(Cl)cccc2Cl)=C(C)C1=O [N-(2,6-dichlorophenyl)-4-(2,4,5-trimethyl-3,6-dioxocyclohexa-1,4-dienyl)butanamide]
< 150 nM: [4] | [1] | [2] | [5]

CC1=C(C)C(=O)C(CCNC(=O)C(C)c2ccc(F)cc2)=C(C)C1=O (stereo not shown) [2-(4-fluorophenyl)-N-(2-(2,4,5-trimethyl-3,6-dioxocyclohexa-1,4-dienyl)ethyl)propanamide]
< 150 nM: [4] | [3]

CC1=C(C)C(=O)C(CCNC(=O)NCCO)=C(C)C1=O [1-(2-hydroxyethyl)-3-(2-(2,4,5-trimethyl-3,6-dioxocyclohexa-1,4-dienyl)ethyl)urea]
< 150 nM: [4] | [1] | [2] | [5]

— patent publication US9090576B2, “2-substituted-p-quinone derivatives for treatment of oxidative stress diseases” (Edison Pharmaceuticals, Inc., priority 2008, dated 2015)
